The values below come from PMC9172056 (Journal of medicinal chemistry, 2022).

Read-outs that look alike come from different tables or passages of the source. A value given as a limit tells only on which side of the number the result lay.

One series has as its target SARS-CoV-2 3CL^pro (Severe acute respiratory syndrome coronavirus 2, UniProt P0DTD1). Briefly: biochemical. The class given is biochemical.
Series [1] deals with entry of SARS-CoV-2 (pseudotyped lentivirus with S). Briefly: organism not typed. It counts as cell-based. Particulars: read-out: EC50 inhibition of SARS-CoV-2 entry.
A further series is described as follows: in vitro. Particulars: cat.
The target in the next series is MERS-CoV 3CL^pro (Middle East respiratory syndrome-related coronavirus, UniProt K9N7C7). Nature of the series: biochemical.
Sequence of MERS-CoV 3CL^pro (K9N7C7 3248-3553 limits assumed): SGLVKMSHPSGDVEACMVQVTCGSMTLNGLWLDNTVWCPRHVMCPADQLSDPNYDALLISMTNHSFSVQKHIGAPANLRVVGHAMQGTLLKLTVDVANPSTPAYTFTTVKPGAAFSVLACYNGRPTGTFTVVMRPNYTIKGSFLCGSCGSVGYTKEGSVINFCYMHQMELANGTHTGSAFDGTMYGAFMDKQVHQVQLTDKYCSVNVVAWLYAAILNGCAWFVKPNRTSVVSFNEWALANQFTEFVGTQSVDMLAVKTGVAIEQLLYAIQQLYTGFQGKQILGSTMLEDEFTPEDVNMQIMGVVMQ
Series [2] concerns SARS-CoV-2 replicon. Particulars: read-out: EC50 SARS-CoV-2 replicon assay, previously reported; cited from earlier work.
Series [3] deals with SARS-CoV-2 replicon. It counts as cell-based. Particulars: read-out: EC50 SARS-CoV-2 replicon assay.
The subject of the next series is CRFK cells. Particulars: cat.

As usually defined, the EC50 is the concentration that produces a half-maximal response. As to `CC(C)C[C@H](NC(=O)OC1CC2(CCN(C(=O)OC(C)(C)C)CC2)C1)C(=O)N[C@H](C=O)C[C@H]1CCNC1=O` [Compound 7b, tert-Butyl 2-((((S)-4-methyl-1-oxo-1-(((S)-1-oxo-3-((R)-2-oxopyrrolidin-3-yl)propan-2-yl)amino)pentan-2-yl)carbamoyl)oxy)-7-azaspiro[3.5]nonane-7-carboxylate], the “fold lower IC50 than compound 1b” value at SARS-CoV-2 3CL^pro is given as greater than 9 fold. Besides, the EC50 in series [1] was in the range of 2000 to 10000 nM. In the series “in vitro”, the CC50 was greater than 100000 nM.
Usually IC50 stands for the concentration at which inhibition is half-maximal. Lower therefore signals greater potency in that assay. In the case of `CC(C)C[C@H](NC(=O)OC1CC2(CCN(C(=O)OC(C)(C)C)CC2)C1)C(=O)N[C@@H](C[C@H]1CCNC1=O)C(O)S(=O)(=O)O` (stereo partly drawn) [Compound 7c, Sodium (2S)-2-((S)-2-((((7-(tert-butoxycarbonyl)-7-azaspiro[3.5]nonan-2-yl)oxy)carbonyl)amino)-4-methylpentanamido)-1-hydroxy-3-((R)-2-oxopyrrolidin-3-yl)propane-1-sulfonate], the figures for the IC50 at SARS-CoV-2 3CL^pro and against MERS-CoV 3CL^pro were 290 ± 20 nM and 950 ± 210 nM, respectively. Also, the EC50 in series [1] fell in the range of 2000 to 10000 nM. This compound also came in with a CC50 in “in vitro” greater than 100000 nM.
Regarding `CC(C)C[C@H](NC(=O)OC1CC2(CCN(C(=O)C(C)C)CC2)C1)C(=O)N[C@@H](C[C@H]1CCNC1=O)C(O)S(=O)(=O)O` (stereo partly drawn) [Compound 8c, Sodium (2S)-1-hydroxy-2-((S)-2-((((7-isobutyryl-7-azaspiro[3.5]nonan-2-yl)oxy)carbonyl)amino)-4-methylpentanamido)-3-((R)-2-oxopyrrolidin-3-yl)propane-1-sulfonate], the figures for the IC50 on SARS-CoV-2 3CL^pro and against MERS-CoV 3CL^pro were 410 ± 10 nM and 520 ± 120 nM, respectively. This compound gave a CC50 in the series “in vitro” greater than 100000 nM.
As to `CC(C)C[C@H](NC(=O)OC1CC2(CCN(C(=O)Cc3ccccc3)CC2)C1)C(=O)N[C@@H](C[C@H]1CCNC1=O)C(O)S(=O)(=O)O` (stereo partly drawn) [Compound 9c, Sodium (2S)-1-hydroxy-2-((S)-4-methyl-2-((((7-(2-phenylacetyl)-7-azaspiro[3.5]nonan-2-yl)oxy)carbonyl)amino)pentanamido)-3-((R)-2-oxopyrrolidin-3-yl)propane-1-sulfonate], the IC50 at SARS-CoV-2 3CL^pro is 290 ± 60 nM; on MERS-CoV 3CL^pro, 610 ± 130 nM. The same compound displayed a CC50 in “in vitro” greater than 100000 nM.
Regarding `CC(C)C[C@H](NC(=O)OC1CC2(CCN(S(C)(=O)=O)CC2)C1)C(=O)N[C@@H](C[C@H]1CCNC1=O)C(O)S(=O)(=O)O` (stereo partly drawn) [Compound 10c, Sodium (2S)-1-hydroxy-2-((S)-4-methyl-2-((((7-(methylsulfonyl)-7-azaspiro[3.5]nonan-2-yl)oxy)carbonyl)amino)pentanamido)-3-((R)-2-oxopyrrolidin-3-yl)propane-1-sulfonate], the IC50 against SARS-CoV-2 3CL^pro was 240 ± 30 nM; on MERS-CoV 3CL^pro it was 330 ± 40 nM. The compound further came in with a CC50 in “in vitro” greater than 100000 nM.
`CC(C)C[C@H](NC(=O)OC1CC2(CCN(C#N)CC2)C1)C(=O)N[C@@H](C[C@H]1CCNC1=O)C(O)S(=O)(=O)O` (stereo partly drawn) [Compound 11c, Sodium (2S)-2-((S)-2-((((7-cyano-7-azaspiro[3.5]nonan-2-yl)oxy)carbonyl)amino)-4-methylpentanamido)-1-hydroxy-3-((R)-2-oxopyrrolidin-3-yl)propane-1-sulfonate]: the IC50 worked out at 390 ± 30 nM on SARS-CoV-2 3CL^pro and 630 ± 180 nM against MERS-CoV 3CL^pro. The CC50 in “in vitro” was greater than 100000 nM.
On the same counts, the results for `CC(C)C[C@H](NC(=O)OC1CN(C(=O)OC(C)(C)C)C1)C(=O)N[C@@H](C[C@H]1CCNC1=O)C(O)S(=O)(=O)O` (stereo partly drawn) [Compound 12c, Sodium (2S)-2-((S)-2-((((1-(tert-butoxycarbonyl)azetidin-3-yl)oxy)carbonyl)amino)-4-methylpentanamido)-1-hydroxy-3-((R)-2-oxopyrrolidin-3-yl)propane-1-sulfonate] are 3050 ± 350 nM, 2550 ± 920 nM and greater than 100000 nM.
Turning to `CC(C)C[C@H](NC(=O)OC1(C)CN(C(=O)OC(C)(C)C)C1)C(=O)N[C@@H](C[C@H]1CCNC1=O)C(O)S(=O)(=O)O` (stereo partly drawn) [Compound 13c, Sodium (2S)-2-((S)-2-((((1-(tert-butoxycarbonyl)-3-methylazetidin-3-yl)oxy)carbonyl)amino)-4-methylpentanamido)-1-hydroxy-3-((R)-2-oxopyrrolidin-3-yl)propane-1-sulfonate], the IC50 against SARS-CoV-2 3CL^pro is 2500 ± 570 nM; on MERS-CoV 3CL^pro it was 4300 ± 280 nM. Further, in “in vitro”, the CC50 is greater than 100000 nM.
Turning to `CC(C)C[C@H](NC(=O)OCC1CN(C(=O)OC(C)(C)C)C1)C(=O)N[C@H](C=O)C[C@H]1CCNC1=O` [Compound 14b, tert-Butyl 3-(((((S)-4-methyl-1-oxo-1-(((S)-1-oxo-3-((R)-2-oxopyrrolidin-3-yl)propan-2-yl)amino)pentan-2-yl)carbamoyl)oxy)methyl)azetidine-1-carboxylate], on SARS-CoV-2 3CL^pro, the “fold better IC50 than the 12b/12c pair” value is listed as greater than 6 fold and the “fold more potent than 17b” value is reported as 12 fold. The EC50 in series [1] lay in the range of 2000 to 10000 nM. The compound further displayed a CC50 in “in vitro” greater than 100000 nM.
Turning to `CC(C)C[C@H](NC(=O)OCC1CN(C(=O)OC(C)(C)C)C1)C(=O)N[C@@H](C[C@H]1CCNC1=O)C(O)S(=O)(=O)[O-].[Na+]` (stereo partly drawn) [Compound 14c, Sodium (2S)-2-((S)-2-((((1-(tert-butoxycarbonyl)azetidin-3-yl)methoxy)carbonyl)amino)-4-methylpentanamido)-1-hydroxy-3-((R)-2-oxopyrrolidin-3-yl)propane-1-sulfonate], at SARS-CoV-2 3CL^pro, the IC50 was 500 ± 140 nM and the “fold better IC50 than the 12b/12c pair” value is recorded as greater than 6 fold. Besides, the EC50 in series [1] is 2000 to 10000 nM. The same compound came in with a CC50 in the series “in vitro” greater than 100000 nM. On MERS-CoV 3CL^pro, the IC50 turned out to be 440 ± 60 nM.
With `CC(C)C[C@H](NC(=O)OCC1CN(C(=O)Cc2ccccc2)C1)C(=O)N[C@@H](C[C@H]1CCNC1=O)C(O)S(=O)(=O)O` (stereo partly drawn) [Compound 15c, Sodium (2S)-1-hydroxy-2-((S)-4-methyl-2-((((1-(2-phenylacetyl)azetidin-3-yl)methoxy)carbonyl)amino)pentanamido)-3-((R)-2-oxopyrrolidin-3-yl)propane-1-sulfonate], the values for the IC50 at SARS-CoV-2 3CL^pro and at MERS-CoV 3CL^pro were 760 ± 80 nM and 180 ± 10 nM, respectively. The CC50 in “in vitro” is greater than 100000 nM.
For `CC(C)C[C@H](NC(=O)OCC1CN(C(=O)C2CC3CCC2C3)C1)C(=O)N[C@@H](C[C@H]1CCNC1=O)C(O)S(=O)(=O)O` (stereo partly drawn) [Compound 16c, Sodium (2S)-2-((2S)-2-((((1-(bicyclo[2.2.1]heptane-2-carbonyl)azetidin-3-yl)methoxy)carbonyl)amino)-4-methylpentanamido)-1-hydroxy-3-((R)-2-oxopyrrolidin-3-yl)propane-1-sulfonate], the IC50 was 490 ± 20 nM at SARS-CoV-2 3CL^pro and 170 ± 30 nM on MERS-CoV 3CL^pro. This compound registered a CC50 in “in vitro” greater than 100000 nM.
Turning to `CC(C)C[C@H](NC(=O)OCC1CN(S(C)(=O)=O)C1)C(=O)N[C@@H](C[C@H]1CCNC1=O)C(O)S(=O)(=O)O` (stereo partly drawn) [Compound 17c, Sodium (2S)-1-hydroxy-2-((S)-4-methyl-2-((((1-(methylsulfonyl)azetidin-3-yl)methoxy)carbonyl)amino)pentanamido)-3-((R)-2-oxopyrrolidin-3-yl)propane-1-sulfonate], the IC50 against SARS-CoV-2 3CL^pro was 4050 ± 780 nM; against MERS-CoV 3CL^pro, 1350 ± 210 nM. In the series “in vitro”, this compound gave a CC50 greater than 100000 nM.
As for `[2H]C([2H])(OC(=O)N[C@@H](CC(C)C)C(=O)N[C@@H](C[C@H]1CCNC1=O)C(O)S(=O)(=O)[O-])C1CN(C(=O)OC(C)(C)C)C1.[Na+]` (stereo partly drawn) [Compound 18c, Sodium (2S)-2-((S)-2-((((1-(tert-butoxycarbonyl)azetidin-3-yl)methoxy-d2)carbonyl)amino)-4-methylpentanamido)-1-hydroxy-3-((R)-2-oxopyrrolidin-3-yl)propane-1-sulfonate], the IC50 on SARS-CoV-2 3CL^pro turned out to be 340 ± 10 nM; against MERS-CoV 3CL^pro, 370 ± 60 nM. Further, the CC50 in “in vitro” was greater than 100000 nM.
On to GC376, for which the values for the EC50 in the series on SARS-CoV-2 replicon [2] and with SARS-CoV-2 replicon [3] were 20 nM and 27 ± 10 nM, respectively. For the same compound, the CC50 with CRFK cells was greater than 100000 nM.
